Data on 18 compounds can be found in US20260108527A1, “POLO LIKE KINASE 4 INHIBITORS” (ORIC Pharmaceuticals, Inc., priority 2022, published 2026).

Experiment [1] deals with T1, human recombinant Aurora A (Homo sapiens, UniProt O14965).
T1 construct: purchased ThermoFisher PR5935A
T1 sequence (O14965 1-403): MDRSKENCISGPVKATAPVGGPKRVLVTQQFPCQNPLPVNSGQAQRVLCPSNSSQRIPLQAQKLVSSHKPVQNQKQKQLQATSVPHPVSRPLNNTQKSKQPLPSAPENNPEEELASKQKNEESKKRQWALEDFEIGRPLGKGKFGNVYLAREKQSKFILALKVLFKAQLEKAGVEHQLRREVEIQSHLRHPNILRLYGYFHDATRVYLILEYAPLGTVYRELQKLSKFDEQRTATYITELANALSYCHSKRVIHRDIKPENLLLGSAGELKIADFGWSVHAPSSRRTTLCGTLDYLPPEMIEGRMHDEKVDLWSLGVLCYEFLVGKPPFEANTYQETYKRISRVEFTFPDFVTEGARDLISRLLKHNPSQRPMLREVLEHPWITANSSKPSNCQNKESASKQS
As to the kind of experiment: Aurora A Kinase Biochemical Assay (ADP-Glo). The settings on record: selectivity ratio; Aurora A 2.5 nM, 20 μM ATP. As to the method:
Activity of human recombinant Aurora A (ThermoFisher, cat #PR5935A) was measured by quantification of adenosine diphosphate (ADP) using the ADP-Glo Kinase Assay Kit (Promega, cat #V9102). Test compounds were solubilized in dimethyl sulfoxide (DMSO) and dispensed into 384-well white polystyrene nonbinding plates (Greiner, cat #781094) using the Echo acoustic dispenser (Labcyte Inc.) in a 11-point 3-fold titration in duplicates. 5 μL of 5.0 nM Aurora A in assay buffer (50 mM HEPES, pH 7.5, 0.01% Brij-35, 0.01% BSA, 10 mM MgCl2, 1 mM EGTA, 1 mM DTT) was added to the plates. Test compounds and Aurora A were incubated for 15 minutes at room temperature (RT). Then 5 μL of a 40 μM adenosine triphosphate (ATP) (Promega, cat #V915B) and 9.3 μM Myelin Basic Protein (MBP) (SignalChem, cat #M42-51N) substrate solution in assay buffer was added and the reaction mixture was incubated for 2 hours at RT. The final concentration of Aurora A, ATP and MBP in the reactions were 2.5 nM, 20 μM and 4.7 μM, respectively. Reactions were stopped and the remaining ATP depleted by adding 10 μL of ADP-Glo reagent (Promega, cat #V912B) and incubating for 40 minutes at RT. The simultaneous conversion of the remaining ADP to ATP and measurement of the newly synthesized ATP was achieved by addition of 20 μL Kinase Detection reagent (Promega, cat #V914B), incubation for 30 min at RT, and luminescence detection using the EnVision plate reader (PerkinElmer). Reactions lacking Aurora A were used as 100% inhibition controls. Reactions containing DMSO alone were used as 0% inhibition controls. The IC50 values reported in Table 2 were determined using four parameter non-linear regression curve fit.
(ADP-Glo first removes unused ATP, then detects ADP through luciferase.)

Experiment [2] deals with CHP134. Kind of experiment: CHP134 CellTiter-Glo (CTG) Assay. Type of experiment: cell-based. Conditions: Homo sapiens, CHP-134, 120 h; viable cells by CellTiter-Glo after 5 days. As to the method: […] cells (DSMZ-German Collection of Microorganisms and Cell Cultures, Braunschweig Germany) were cultured in RPMI 1640 supplemented with 10% fetal bovine serum, penicillin (100 U/ml), 1% L-Glutamine and streptomycin ([…]). Cells were seeded (200 cells/well) in 384-well plates for 16 hours. On day two, nine serial 1:3 compound dilutions were made in DMSO in a 96-well plate. The compounds were then further diluted into growth media using a BRAVO robot (Agilent, Santa Clara, CA). The diluted compounds were then added to quadruplicate wells in the 384-well cell plate and incubated at 37° C. and 5% CO2. After 5 days, relative numbers of viable cells were measured by luminescence using CellTiter-Glo® (Promega) according to the manufacturer's instructions and read on a SPARK Multimode Microplate Reader (Tecan, Mannedorf Switzerland). The IC50 calculations for the values reported in Table 2 were carried out using Prism 6.0 software (GraphPad, San Diego).
(In general: Cellular ATP, detected with luciferase, serves as a proxy for viable cell number.)

For the compound `COc1ccc2c(c1)[C@]1(C[C@H]1c1ccc3c(Nc4cc5c(cc4OC)S(=O)(=O)C=C5)n[nH]c3c1)C(=O)N2` [Example 6, 6-methoxy-5-({6-[(1R,2S)-5′-methoxy-2′-oxo-1′,2′-dihydrospiro[cyclopropane-1,3′-indol]-2-yl]-1H-indazol-3-yl}amino)-1H-1-benzothiophene-1,1-dione], in experiment [1], the “[Aurora A IC50 (nM)]/[PLK4 IC50 (nM)]” value was determined as 581.0754. The same compound displayed an IC50 in experiment [2] of 39.4 nM.
Turning to `COc1ccc2c(c1)[C@]1(C[C@H]1c1ccc3c(Nc4nc(N(C)C)ncc4OC)n[nH]c3c1)C(=O)N2` [Example 20, (1R,2S)-2-(3-{[2-(dimethylamino)-5-methoxypyrimidin-4-yl]amino}-1H-indazol-6-yl)-5′-methoxyspiro[cyclopropane-1,3′-indol]-2′(1′H)-one], the “[Aurora A IC50 (nM)]/[PLK4 IC50 (nM)]” value in experiment [1] is recorded as 170. Further, in experiment [2], the IC50 is 440 nM.
On to `CCOc1ncc(-c2nccs2)cc1Nc1n[nH]c2cc([C@@H]3C[C@@]34C(=O)Nc3ccc(OC)cc34)ccc12` [Example 41, (1R,2S)-2-(3-{[2-ethoxy-5-(1,3-thiazol-2-yl)pyridin-3-yl]amino}-1H-indazol-6-yl)-5′-methoxyspiro[cyclopropane-1,3′-indol]-2′(1′H)-one], for which the “[Aurora A IC50 (nM)]/[PLK4 IC50 (nM)]” value in experiment [1] is listed as 4711.9113. This compound also yielded an IC50 in experiment [2] of 131 nM.
`COc1ccc2c(c1)[C@]1(C[C@H]1c1ccc3c(Nc4cc(-c5cnn(C)c5)ccc4OC)n[nH]c3c1)C(=O)N2` [Example 11, (1R,2S)-5′-methoxy-2-{3-[2-methoxy-5-(1-methyl-1H-pyrazol-4-yl)anilino]-1H-indazol-6-yl}spiro[cyclopropane-1,3′-indol]-2′(1′H)-one]: in experiment [1], the “[Aurora A IC50 (nM)]/[PLK4 IC50 (nM)]” value came out at 897.6923. This compound also registered an IC50 in experiment [2] of 110 nM.
Turning to `COc1ccc2c(c1)[C@]1(C[C@H]1c1ccc3c(Nc4cc(-c5cscn5)ccc4OC)n[nH]c3c1)C(=O)N2` [Example 15, (1R,2S)-5′-methoxy-2-{3-[2-methoxy-5-(1,3-thiazol-4-yl)anilino]-1H-indazol-6-yl}spiro[cyclopropane-1,3′-indol]-2′(1′H)-one], in experiment [1], the “[Aurora A IC50 (nM)]/[PLK4 IC50 (nM)]” value amounted to 146.5230. The IC50 in experiment [2] came out at 93.8 nM.
On to `CCOc1ccc(-c2nccs2)cc1Nc1n[nH]c2cc([C@@H]3C[C@@]34C(=O)Nc3ccc(OC)cc34)ccc12` [Example 33, (1R,2S)-2-{3-[2-ethoxy-5-(1,3-thiazol-2-yl)anilino]-1H-indazol-6-yl}-5′-methoxyspiro[cyclopropane-1,3′-indol]-2′(1′H)-one], for which the “[Aurora A IC50 (nM)]/[PLK4 IC50 (nM)]” value in experiment [1] turned out to be 1496.6799. In experiment [2], this compound displayed an IC50 of 41.4 nM.
On to `CCOc1cnc(C#CC(C)(C)O)nc1Nc1n[nH]c2cc([C@@H]3C[C@@]34C(=O)Nc3ccc(OC)cc34)ccc12` [Example 45, (1R,2S)-2-(3-((5-ethoxy-2-(3-hydroxy-3-methylbut-1-yn-1-yl)pyrimidin-4-yl)amino)-1H-indazol-6-yl)-5′-methoxyspiro[cyclopropane-1,3′-indolin]-2′-one], for which, in experiment [1], the “[Aurora A IC50 (nM)]/[PLK4 IC50 (nM)]” value came out at 42971.2230. In experiment [2], this compound had an IC50 of 890 nM.
With `COc1ccc2c(c1)[C@]1(C[C@H]1c1ccc3c(Nc4nc(-c5cnco5)ncc4OC)n[nH]c3c1)C(=O)N2` [Example 40, (1R,2S)-5′-methoxy-2-(3-{[5-methoxy-2-(1,3-oxazol-5-yl)pyrimidin-4-yl]amino}-1H-indazol-6-yl)spiro[cyclopropane-1,3′-indol]-2′(1′H)-one], in experiment [1], the “[Aurora A IC50 (nM)]/[PLK4 IC50 (nM)]” value is 288.4. The IC50 in experiment [2] was 237 nM.
Regarding `COc1ccc2c(c1)[C@]1(C[C@H]1c1ccc3c(Nc4cc(-c5ccon5)ccc4OC)n[nH]c3c1)C(=O)N2` [Example 32, (1R,2S)-5′-methoxy-2-{3-[2-methoxy-5-(1,2-oxazol-3-yl)anilino]-1H-indazol-6-yl}spiro[cyclopropane-1,3′-indol]-2′(1′H)-one], the “[Aurora A IC50 (nM)]/[PLK4 IC50 (nM)]” value in experiment [1] was 325.6348. For the same compound, the IC50 in experiment [2] was 106 nM.
Consider `CCOc1cc2c(ccc[n+]2[O-])cc1Nc1n[nH]c2cc([C@@H]3C[C@@]34C(=O)Nc3ccc(OC)cc34)ccc12` [Example 12, 7-ethoxy-6-((6-((1R,2S)-5′-methoxy-2′-oxospiro[cyclopropane-1,3′-indolin]-2-yl)-1H-indazol-3-yl)amino)quinoline 1-oxide], for which the “[Aurora A IC50 (nM)]/[PLK4 IC50 (nM)]” value in experiment [1] was 630. Further, the IC50 in experiment [2] stood at 1100 nM.
The like results for `CCOc1ncc(-c2nccs2)nc1Nc1n[nH]c2cc([C@@H]3C[C@@]34C(=O)Nc3ccc(OC)cc34)ccc12` [Example 35, (1R,2S)-2-(3-{[3-ethoxy-6-(1,3-thiazol-2-yl)pyrazin-2-yl]amino}-1H-indazol-6-yl)-5′-methoxyspiro[cyclopropane-1,3′-indol]-2′(1′H)-one] were, in that order, 727.2189 and 13.8 nM.
Turning to `CCS(=O)(=O)c1ccc(Nc2n[nH]c3cc([C@@H]4C[C@@]45C(=O)Nc4ccc(OC)cc45)ccc23)c(OC)c1` [Example 5, (1R,2S)-2-{3-[4-(ethanesulfonyl)-2-methoxyanilino]-1H-indazol-6-yl}-5′-methoxyspiro[cyclopropane-1,3′-indol]-2′(1′H)-one], the “[Aurora A IC50 (nM)]/[PLK4 IC50 (nM)]” value in experiment [1] is on record as 567.6936. Also, the IC50 in experiment [2] is 39.1 nM.
As to `CCOc1cnc(-c2nccs2)cc1Nc1n[nH]c2cc([C@@H]3C[C@@]34C(=O)Nc3ccc(OC)cc34)ccc12` [Example 34, (1R,2S)-2-(3-{[5-ethoxy-2-(1,3-thiazol-2-yl)pyridin-4-yl]amino}-1H-indazol-6-yl)-5′-methoxyspiro[cyclopropane-1,3′-indol]-2′(1′H)-one], in experiment [1], the “[Aurora A IC50 (nM)]/[PLK4 IC50 (nM)]” value is on record as 14827.5862. The same compound registered an IC50 in experiment [2] of 139 nM.
On to `CCOc1ccc(-c2cnn(C)c2)cc1Nc1n[nH]c2cc([C@@H]3C[C@@]34C(=O)Nc3ccc(OC)cc34)ccc12` [Example 37, (1R,2S)-2-{3-[2-ethoxy-5-(1-methyl-1H-pyrazol-4-yl)anilino]-1H-indazol-6-yl}-5′-methoxyspiro[cyclopropane-1,3′-indol]-2′(1′H)-one], for which the “[Aurora A IC50 (nM)]/[PLK4 IC50 (nM)]” value in experiment [1] turned out to be 27839.6436. Besides, in experiment [2], the IC50 amounted to 442 nM.
The corresponding values for `COc1ccc2c(c1)[C@]1(C[C@H]1c1ccc3c(Nc4nc(-c5ncco5)cnc4OC)n[nH]c3c1)C(=O)N2` [Example 19, (1R,2S)-5′-methoxy-2-(3-{[3-methoxy-6-(1,3-oxazol-2-yl)pyrazin-2-yl]amino}-1H-indazol-6-yl)spiro[cyclopropane-1,3′-indol]-2′(1′H)-one] are 360 and 170 nM.
The like results for `COc1ccc2c(c1)[C@]1(C[C@H]1c1ccc3c(Nc4nc(-c5cnn(C)c5)cnc4OC)n[nH]c3c1)C(=O)N2` [Example 24, (1R,2S)-5′-methoxy-2-(3-{[3-methoxy-6-(1-methyl-1H-pyrazol-4-yl)pyrazin-2-yl]amino}-1H-indazol-6-yl)spiro[cyclopropane-1,3′-indol]-2′(1′H)-one] were, in that order, 842.4019 and 49.9 nM.
As for `COc1ccc2c(c1)[C@]1(C[C@H]1c1ccc3c(Nc4cc(-c5nccs5)ccc4OC)n[nH]c3c1)C(=O)N2` [Example 14, (1R,2S)-5′-methoxy-2-{3-[2-methoxy-5-(1,3-thiazol-2-yl)anilino]-1H-indazol-6-yl}spiro[cyclopropane-1,3′-indol]-2′(1′H)-one], the “[Aurora A IC50 (nM)]/[PLK4 IC50 (nM)]” value in experiment [1] is 187.4804. Further, the midpoint of inhibition in experiment [2], the IC50, lay at 88.7 nM.
On to `COc1ccc2c(c1)[C@]1(C[C@H]1c1ccc3c(Nc4cc(-c5ncco5)ccc4OC)n[nH]c3c1)C(=O)N2` [Example 13, (1R,2S)-5′-methoxy-2-{3-[2-methoxy-5-(1,3-oxazol-2-yl)anilino]-1H-indazol-6-yl}spiro[cyclopropane-1,3′-indol]-2′(1′H)-one], for which the “[Aurora A IC50 (nM)]/[PLK4 IC50 (nM)]” value in experiment [1] turned out to be 414.8. Further, 348 nM corresponded to half-maximal inhibition in experiment [2] (IC50).

A word on the IC50: it is the point on the concentration scale where inhibition reaches its midpoint. Low readings indicate inhibition by little substance, high ones a need for much substance.
